Source: patent publication US20220331371A1, “DEVELOPMENT OF EMBRYONIC-LIKE TISSUE FROM STEM CELLS” (The Regents of the University of Michigan, priority 2019, published 2022)

Tests used:
[1] = test system: human ES cells co-cultured with Transwell-AMLCs; experiment: Transwell co-culture assay of AMLCs and human ES cells; format: cell-based; conditions: 5 μM in Transwell co-culture, 48 h
Protocol: Immunocytochemistry. hPSCs were fixed in 4% paraformaldehyde (PFA; buffered in 1× PBS) for 12 h, and permeabilized in 0.1% SDS solution (sodium dodecyl sulphate, dissolved in PBS) for another 3 h. Samples were then blocked in 4% donkey serum (Sigma-Aldrich) at 4° C. for 24 h, followed by incubation with primary antibody solutions at 4° C. for another 24 h. Samples were then labelled with donkey-raised secondary antibodies (1:500 dilution) at 4° C. for 24 h, 4,6-diamidino-2-phenylindole (DAPI; Thermo Fisher Scientific) was used for counterstaining cell nuclei. Alexa Fluor dye-conjugated WGA (Thermo Fisher Scientific) and phalloidin (Invitrogen) were used for visualization of cell membrane and actin microfilaments, respectively. Both primary and secondary antibodies were prepared in 4% donkey serum supplemented with 0.1% NaN3. Seventy microlitre antibody solutions were added to each medium reservoir for immunostaining. The asymmetric embryonic-like sac structure was assessed by immunocytochemistry to confirm molecular asymmetry at t=36 h (for P-ELS: co-staining for TFAP2A and T; for A-ELS: co-staining for TFAP2A and NANOG). In situ hybridization. […] For morphogenetic quantification, bright-field or phase-contrast images were acquired using a Zeiss Observer Z1 microscope (Carl Zeiss MicroImaging) equipped with a monochrome CCD camera (AxioCam, Carl Zeiss MicroImaging). […]

[2] = test system: PrePS-EPI-like cells in P-ELS; experiment: Posterior primitive streak-like cell development in P-ELS with antagonists in the induction channel; format: cell-based, human
From the text: Cell lines. hPSC lines used in this study include H1 human ES cell (WA01, WiCell; NIH registration number: 0043), H9 human ES cell (WA09, WiCell; NIH registration number: 0062) and 1196a (a human iPSC line from the University of Michigan Pluripotent Stem Cell Core31). All hPSC lines have been authenticated by original sources as well as in-house by immunostaining for pluripotency markers and successful differentiation to the three germ layers. All hPSC lines are maintained in a feeder-free system for at least ten passages and authenticated as karyotypically normal. Karyotype analysis was performed by Cell Line Genetics. All hPSC lines are tested negative for mycoplasma contamination (LookOut Mycoplasma PCR Detection Kit, Sigma-Aldrich). Cell culture. hPSCs were maintained in a standard feeder-free culture system using mTeSR medium (mTeSR; STEMCELL Technologies) or TeSR-E8 medium (Essential 8 or E8; STEMCELL Technologies) and lactate dehydrogenase-elevating virus (LDEV)-free, human ES cell-qualified reduced growth factor basement membrane matrix Geltrex (Thermo Fisher Scientific; derived from Engelbreth-Holm-Swarm tumors similarly to Matrigel). Cell cultures were visually examined during each passage to ensure absence of spontaneously differentiated, mesenchymal-like cells in culture. All hPSCs were used before reaching P70. Device fabrication. The microfluidic device consists of a polydimethylsiloxane (PDMS) structure layer bonded to a coverslip. The PDMS structure layer is made by mixing PDMS curing agent and base polymer (Sylgard 184; Dow Coming) at a ratio of 1:10 before casting PDMS prepolymer onto a microfabricated silicon mold and baking at 110° C. for 40 min. Medium reservoirs (8 mm in diameter) and gel-loading ports (1.2 mm in diameter) were then punched into the PDMS structure layer using Harris Uni-Core punch tools (Ted Pella). After cleaning with ethanol and air plasma activation, the PDMS structure layer was bonded to a coverslip before baking at 80° C. overnight. Before usage, the microfluidic device was sterilized under UV light for 30 min. […]

Structure (SMILES): Cc1ccc2nc(NC(=O)CSc3nc4c(c(=O)n3-c3ccccc3)SCC4)sc2c1 [IWP2]
- Differentiation of posterior primitive streak-like cells [1]: inhibited
- Inhibition of induction of MeLC in posteriorized embryonic-like sac ([2]; IWR1 10 μM or IWP2 5 μM): inhibited
- Inhibition of PrePS-EPI-like cell development ([2]; supplemented in the induction channel (IWP2 5 μM, IWR1 10 μM, noggin 50 ng ml^−1), BMP4 in cell-loading channel): completely inhibited
